Laboratory results taken from patent US20260325490A1, “ORAL FORMULATIONS OF EDARAVONE AND IMPROVED METHOD OF MANUFACTURING THEREOF” (BDR PHARMACEUTICALS INTERNATIONAL PRIVATE LIMITED, priority 2022, published 2026).

How the values were obtained:
[1] = cited from earlier work
[2] = cited from earlier work; remark: listed apart in the source
[3] = Chemical stability of Edaravone (hydrolysis, oxidation); assay type: physicochemical; conditions: aqueous solution, compared to the powdered form
Text: It may be noted that the efficacy of Edaravone has seen an undisputed success since its inception in the therapeutic category of stroke management. Edaravone per se has wide applicability and has potential to be used for more therapeutic indications. The injectable dosage form has been a limiting factor in case of increased use of this product. Importantly, developing an oral dosage form of Edaravone is a challenging process due to its less soluble and less permeable (BCS Class-IV product) nature. Further, an injectable dosage form has inherent difficulty in terms of its usage post hospitalization. […] The inventors of the present invention during development have noted that it was difficult to stabilize Edaravone.

In the case of `CC1=NN(c2ccccc2)C(=O)C1` [Edaravone, 3-methyl-1-phenyl-2-pyrazolin-5-one], the “Solubility in acetic acid” value ([1]; acetic acid) is listed as “freely soluble”, the “Solubility in diethyl ether” value ([1]; diethyl ether) is listed as “slightly soluble” and the Solubility in ethanol ([1]; ethanol) is listed as “freely soluble”. For the same compound, the Solubility in methanol ([1]; methanol) was “freely soluble”, the Solubility in water ([1]; water) was “slightly soluble” and the Lipid permeability [2] was “lower lipid permeability”. The “Bio-pharmaceutics Classification System (BCS) class” value ([2]; poor solubility in water and lower lipid permeability) was “Class IV” and the Decomposition by oxidation [3] was “easily decompose by oxidation”.
